Experimental findings from ChEMBL document CHEMBL3988442, “University of Dundee, Small-Polar-MMV Screening Library” (2021) are described below.

By pIC50 is commonly meant the IC50 on a negative log10 scale, so that one unit is a factor of ten.

Structures are written as SMILES. Some results are limits rather than exact numbers.

Assay [1] concerns Plasmodium falciparum. Briefly: Calibr Malaria Delayed Death Assay SOP. In kind it is functional, organism-based. Conditions: for IC50: Plasmodium falciparum.
In assay [2] the test system is Leishmania donovani. Briefly: Leishmania intramacrophage assay. In kind it is functional, organism-based. The note with it: for IC50: Leishmania donovani.
Assay [3] in a line: microbe, parasite or virus in culture. The note with it: Mycobacterium tuberculosis, 72 h, read-out: pIC50 (converted).
The nature of assay [4]: microbe, parasite or virus in culture. The note with it: Mycobacterium tuberculosis, 96 h, read-out: pIC50 (converted).

In assay [1], `CN1CCC(N(Cc2ccco2)S(=O)(=O)c2ccc(Br)cc2Cl)CC1` showed a pIC50 of 6.36 and an IC50 of 0.473 µM. In assay [2], this compound had a pIC50 of 4.643 and an IC50 of 20.9 µM.

Consider `Cc1ccc2[nH]c(-c3cn(C4CCNCC4)nn3)nc2c1C`, for which the values for the pIC50 in assay [1] and in assay [2] were 6.454 and 4.614, respectively. For the same compound, the IC50 is 0.325 µM in assay [1] and 20.4 µM in assay [2]. On to `CC(C)c1nccc(C2(c3ccccc3Cl)CCNCC2)n1`, for which the pIC50 in assay [1] amounted to 6.087. Moreover, the IC50 in assay [1] is 0.789 µM; in assay [2], 26.3 µM. As for `CC(O)CN1CCC(CNCc2cccc(OC(F)(F)F)c2)CC1` (centres undefined), in assay [1], the negative-log IC50 (pIC50) was found to be 6.17 and the IC50 is 0.909 µM. In assay [2], this compound had a pIC50 of 4.85 and an IC50 of 16.8 µM.

Consider `COc1cc(C)c(-c2ccc(F)c3c2OC(CN)C3)cc1C` (centres undefined), for which the IC50 is more than 50.1 µM in assay [3], 7.27 µM in assay [2] and more than 50.1 µM in assay [4]. The pIC50 in assay [2] was determined as 4.996. Consider `Cc1nc(C2CCN(C)CC2)cc(N2CCOc3ccc(Cl)cc3C2)n1`, for which the figures for the IC50 in assay [3], in assay [2] and in assay [4] were 32.6 µM, 14.9 µM and more than 50.1 µM, respectively. For the same compound, the negative-log IC50 (pIC50) in assay [2] is given as 4.959.

`NCC1CCCN(c2nc(-c3ccccc3)nc3c2CCNCC3)C1` (centres undefined): the IC50 in assay [3] was 11.3 µM; in assay [2], 27.2 µM; in assay [4], 17.7 µM. In the same order, the values of `O=C(c1c[nH]cn1)N1CCC(F)(F)C2(CCN(c3cccc(F)c3)C2)C1` (centres undefined) are more than 50.1 µM, more than 50.1 µM and more than 50.1 µM. Consider `COc1cc(OC)cc(-c2cccc3c2OC(CN)C3)c1` (centres undefined), for which the figures for the IC50 in assay [3], in assay [2] and in assay [4] were 1.33 µM, 18.3 µM and 20 µM, respectively. In assay [2], this compound returned a pIC50 of 4.734. The corresponding values for `c1ccc(C2CCCN(c3ncnc4c3CCNC4)CC2)cc1` (centres undefined) are more than 50.1 µM, 18.1 µM, more than 50.1 µM and 4.655. Take `COc1ccc(-c2cccc3c2OC(CN)C3)cc1F` (centres undefined): the IC50 was more than 50.1 µM in assay [3], 22.2 µM in assay [2] and 34.7 µM in assay [4]. This compound displayed a negative logarithm of the IC50 (pIC50) in assay [2] of 4.618. `COCCN1CCN(c2ccc3ccc(C(=O)NC4CC4)cn23)CC1`: in assay [2], the IC50 is more than 50.1 µM.

For the compound `Cc1nn(C)cc1-c1cc(C(F)(F)F)nc(NC2CCCCC2)n1`, the IC50 in assay [2] was more than 50.1 µM. For the compound `O=C(c1cc[nH]n1)N1CCC(F)(F)C2(CCN(c3ccccn3)C2)C1` (centres undefined), the IC50 in assay [2] is more than 50.1 µM. Compound `CCC1CCCN(Cc2nc(N)c3ccccc3n2)C1` (centres undefined) showed an IC50 in assay [2] of more than 50.1 µM. The compound `CCS(=O)(=O)c1ccc(N2CCC(NC(=O)CCC(C)C)CC2)cc1` showed an IC50 in assay [2] of more than 50.1 µM. Same read-out and setting: the result for `Cc1cnc(N2CCCC3(CCCN(C)C3)C2)nc1` (centres undefined) reads more than 50.1 µM.

With `CN(Cc1cc2cc(F)ccc2[nH]1)c1cc(C2CCCNC2)ncn1` (centres undefined), in assay [2], the negative logarithm of the IC50 (pIC50) is 4.89 and the IC50 is 21.5 µM. Regarding `OCCN1CCC(F)(F)C2(CCN(c3cccnc3)C2)C1` (centres undefined), in assay [2], the IC50 was more than 50.1 µM. `CN(C)C(=O)C1CCN(c2cncc(-n3cccn3)n2)CC1` showed an IC50 in assay [2] of more than 50.1 µM. Same read-out and setting: in the case of `FC1(F)CCN(Cc2cccnc2)CC12CCN(c1cnccn1)C2` (centres undefined) it was more than 50.1 µM. Still for that read-out and setting: the result for `CN(C)C(=O)c1ccc2ccc(N3CCN(CC4CC4)CC3)n2c1` reads more than 50.1 µM; that for `CC1CCCN(CC(=O)N2CCC(c3ncc4c(n3)CCNC4)CC2)C1` (centres undefined), more than 50.1 µM. The compound `CCOc1ccc(CNCCCn2ccnc2)cc1Cl` had an IC50 in assay [2] of 12.6 µM. In assay [2], `CN(Cc1ccccc1)C1COC2(CCN(Cc3nccs3)CC2)C1` (centres undefined) had an IC50 of more than 50.1 µM. `N#Cc1ccc(CNC(=O)C2=NN(c3ccccc3)C(=O)CN2)cc1` had an IC50 in assay [2] of more than 50.1 µM.

In assay [2], `Cc1ccc(CN2CCC3(CC2)CC(N2CCN(C)CC2)CO3)s1` (centres undefined) showed an IC50 of more than 50.1 µM. For `Cc1nc(NCc2nnc(C)n2C)c2c(CC(C)C)csc2n1`, in assay [2], the IC50 is more than 50.1 µM. Still for that read-out and setting: the result for `CN(CCc1noc(C2CC2)n1)C(=O)CN1C(=O)COc2ccccc21` reads more than 50.1 µM; that for `NC(=O)C1CCN(Cc2csc(-c3ncccn3)n2)CC1`, more than 50.1 µM. Same read-out and setting: the result for `c1cnc(-c2nc(CN3CCCC(Cn4cncn4)C3)cs2)nc1` (centres undefined) reads more than 50.1 µM; that for `Cn1ccnc1CN1CCC(F)(F)C2(CCN(c3cccnc3)C2)C1` (centres undefined), more than 50.1 µM; that for `O=C(CCC1CCCC1)N1CCC(c2ncc3c(n2)CCNC3)CC1`, more than 50.1 µM. Regarding `OCCN1CCC(F)(F)C2(CCN(c3cnccn3)C2)C1` (centres undefined), the IC50 in assay [2] is more than 50.1 µM.

`COCCNc1nc2c(c(NCCc3cccs3)n1)CCNCC2` gave an IC50 in assay [2] of 24.2 µM. The same measure, in the same setting: the result for `Cn1cc(CN2CCC(F)(F)C3(CCN(c4cccc(F)c4)C3)C2)cn1` (centres undefined) reads more than 50.1 µM; that for `CC(=O)NCc1nnc2n1CCN(c1nc(C)nc3sccc13)CC2`, more than 50.1 µM.

In turn, `C=C(C)CN1CCC(C(=O)c2cc(F)ccc2F)CC1` gave an IC50 in assay [2] of more than 50.1 µM. In assay [2], `CCN1CCCC(O)(c2nc(C)c(CCOc3ccccc3Cl)s2)CC1` (centres undefined) had an IC50 of more than 50.1 µM. On the same count and under the same terms, in the case of `Cc1cc(C(F)(F)F)nc(CCNc2nc(C)nc3sccc23)n1` it was more than 50.1 µM.

With `Cn1cc(CN2CCC(F)(F)C3(CCN(c4cccnc4)C3)C2)cn1` (centres undefined), in assay [2], the IC50 was more than 50.1 µM.

For `COc1c(F)cc(-c2cccc3c2OC(CN)C3)cc1F` (centres undefined), the IC50 in assay [3] was 36.7 µM; in assay [2], 19.2 µM; in assay [4], 22.9 µM. The compound also had a pIC50 in assay [2] of 4.693. `c1cncc(COC[C@H]2CC[C@H]3[C@H](CCN3Cc3nccs3)O2)c1` had an IC50 in assay [2] of more than 50.1 µM. The compound `CN1CCN(C2COC3(CCN(Cc4cccs4)CC3)C2)CC1` (centres undefined) showed an IC50 in assay [2] of more than 50.1 µM.

`CCc1cc(N2CCCNCC2)n2nc(C)c(C)c2n1` showed an IC50 in assay [2] of more than 50.1 µM. The same measure, in the same setting: the result for `Cc1ccccc1C1(CNc2nnc(C)c(C)c2C#N)CCOCC1` reads more than 50.1 µM. In the case of `Cn1cc(CN2CCC(F)(F)C3(CCN(c4cnccn4)C3)C2)cn1` (centres undefined), the IC50 in assay [3], in assay [2] and in assay [4] was more than 50.1 µM throughout. As for `Cc1nnc(NCC2(c3ccccc3)CC2)c(C#N)c1C`, the IC50 in assay [2] was more than 50.1 µM. Still for that read-out and setting: the result for `O=C(O)C1CCCN1c1nc(C2CC2)cc(C(F)(F)F)n1` (centres undefined) reads more than 50.1 µM. Turning to `CC(C)c1nc(-c2cc(C(=O)NCCN(C)C)c3ccccn23)cs1.O=C(O)C(F)(F)F`, the IC50 in assay [3] was more than 50.1 µM; in assay [2], 18.9 µM; in assay [4] it was more than 50.1 µM. In assay [2], this compound came in with a pIC50 of 4.846. Consider `CC(Cn1cccn1)NC(=O)NCCc1cccnc1` (centres undefined), for which, in assay [2], the IC50 is more than 50.1 µM.

Consider `Cc1nnc(NCC2(c3ccccc3)CCC2)c(C#N)c1C`, for which the IC50 in assay [2] is more than 50.1 µM.

Turning to `CN(c1ncnc2c1cnn2C)C1CCCN(c2cccnn2)C1` (centres undefined), in assay [2], the IC50 was more than 50.1 µM. In assay [2], `CN(C)C(=O)CNC(=O)c1ccc2ccc(N(C)CC3CC3)n2c1` had an IC50 of more than 50.1 µM. For the compound `CCc1ccc(-c2ncc3c(n2)N(C)CCN(CCN(C)C)C3=O)cc1`, in assay [2], the pIC50 is 4.813 and the IC50 was 10.3 µM. `COc1ccc(Cl)cc1CNCCCn1ccnc1` showed an IC50 in assay [2] of more than 50.1 µM. With `Cc1nc(NCc2nncn2C2CC2)c2c(CC(C)C)csc2n1`, in assay [2], the IC50 is more than 50.1 µM. The same measure, in the same setting: in the case of `COCc1nc(CNc2cccc(-c3ncon3)c2)cs1` it was more than 50.1 µM; in that of `COCCNC(=O)c1ccc2ccc(N(C)CC3CC3)n2c1`, more than 50.1 µM.
